Measured values taken from ChEMBL document CHEMBL1149774, “Synthesis of N-(5,7-diamino-3-phenyl-quinoxalin-2-yl)-3,4,5-substituted anilines and N-[4[(5,7-diamino-3-phenylquinoxalin-2-yl)amino]benzoyl]-l-glutamic acid diethyl ester: evaluation of in vitro anti-cancer and anti-folate activities” (Eur J Med Chem, 2008).

Legend:
Assay type in all cases: functional
ACHN = experiment: Growth inhibition of human ACHN cells after 48 hrs by SRB staining method; settings: for CC50: read-out: pLC50 (the source's name) (converted); for TGI: read-out: pTGI (converted)
RXF 393 = experiment: Growth inhibition of human RXF393 cells after 48 hrs by SRB staining method; settings: RXF 393, 48 h; for CC50: read-out: pLC50 (the source's name) (converted); for TGI: read-out: pTGI (converted)
SNB-19 = experiment: Growth inhibition of human SNB19 cells after 48 hrs by SRB staining method; settings: SNB-19, 48 h; for TGI: read-out: pTGI (converted)
NCI/ADR-RES = experiment: Growth inhibition of human NCI/ADR-RES cells after 48 hrs by SRB staining method; settings: for CC50: read-out: pLC50 (the source's name) (converted); for TGI: read-out: pTGI (converted)
NCI-H23 = experiment: Growth inhibition of human NCI-H23 cells after 48 hrs by SRB staining method; settings: NCI-H23, 48 h; for TGI: read-out: pTGI (converted)
RPMI-8226 = experiment: Growth inhibition of human RPMI8226 cells after 48 hrs by SRB staining method; settings: RPMI-8226, 48 h; for CC50: read-out: pLC50 (the source's name) (converted); for TGI: read-out: pTGI (converted)
OVCAR-8 = experiment: Growth inhibition of human OVCAR8 cells after 48 hrs by SRB staining method; settings: OVCAR-8, 48 h; for CC50: read-out: pLC50 (the source's name) (converted); for TGI: read-out: pTGI (converted)
HOP-62 = experiment: Growth inhibition of human HOP62 cells after 48 hrs by SRB staining method; settings: HOP-62, 48 h; for TGI: read-out: pTGI (converted)
A549 = experiment: Growth inhibition of human A549 cells after 48 hrs by SRB staining method; settings: A549, 48 h; for CC50: read-out: pLC50 (the source's name) (converted); for TGI: read-out: pTGI (converted)
MDA-MB-231 = experiment: Growth inhibition of human MDA-MB-231 cells after 48 hrs by SRB staining method; settings: MDA-MB-231, 48 h; for CC50: read-out: pLC50 (the source's name) (converted); for TGI: read-out: pTGI (converted)
UACC-62 = experiment: Growth inhibition of human UACC62 cells after 48 hrs by SRB staining method; settings: UACC-62, 48 h; for TGI: read-out: pTGI (converted)
PC-3 = experiment: Growth inhibition of human PC3 cells after 48 hrs by SRB staining method; settings: PC-3, 48 h; for CC50: read-out: pLC50 (the source's name) (converted); for TGI: read-out: pTGI (converted)
TK-10 = experiment: Growth inhibition of human TK10 cells after 48 hrs by SRB staining method; settings: TK-10, 48 h; for CC50: read-out: pLC50 (the source's name) (converted); for TGI: read-out: pTGI (converted)
SK-MEL-28 = experiment: Growth inhibition of human SK-MEL-28 cells after 48 hrs by SRB staining method; settings: SK-MEL-28, 48 h; for CC50: read-out: pLC50 (the source's name) (converted); for TGI: read-out: pTGI (converted)
MDA-MB-435 = experiment: Growth inhibition of human MDA-MB-435 cells after 48 hrs by SRB staining method; settings: MDA-MB-435, 48 h; for CC50: read-out: pLC50 (the source's name) (converted); for TGI: read-out: pTGI (converted)
SN12C = experiment: Growth inhibition of human SN12C cells after 48 hrs by SRB staining method; settings: for CC50: read-out: pLC50 (the source's name) (converted); for TGI: read-out: pTGI (converted)
Malme-3M = experiment: Growth inhibition of human MALME-3M cells after 48 hrs by SRB staining method; settings: for TGI: read-out: pTGI (converted)
OVCAR-5 = experiment: Growth inhibition of human OVCAR5 cells after 48 hrs by SRB staining method; settings: OVCAR-5, 48 h; for TGI: read-out: pTGI (converted)
SF-268 = experiment: Growth inhibition of human SF268 cells after 48 hrs by SRB staining method; settings: SF-268, 48 h; for CC50: read-out: pLC50 (the source's name) (converted); for TGI: read-out: pTGI (converted)
HCT-116 = experiment: Growth inhibition of human HCT116 cells after 48 hrs by SRB staining method; settings: HCT-116, 48 h; for TGI: read-out: pTGI (converted)
OVCAR-4 = experiment: Growth inhibition of human OVCAR4 cells after 48 hrs by SRB staining method; settings: OVCAR-4, 48 h; for TGI: read-out: pTGI (converted)
KM12 = experiment: Growth inhibition of human KM12 cells after 48 hrs by SRB staining method; settings: KM12, 48 h; for TGI: read-out: pTGI (converted)
OVCAR-3 = experiment: Growth inhibition of human OVCAR-3 cells after 48 hrs by SRB staining method; settings: OVCAR-3, 48 h; for TGI: read-out: pTGI (converted)
NCI-H322M = experiment: Growth inhibition of human NCI-H322M cells after 48 hrs by SRB staining method; settings: for TGI: read-out: pTGI (converted)
NCI-H522 = experiment: Growth inhibition of human NCI-H522 cells after 48 hrs by SRB staining method; settings: NCI-H522, 48 h; for TGI: read-out: pTGI (converted)
MCF7 = experiment: Growth inhibition of human MCF7 cells after 48 hrs by SRB staining method; settings: MCF7, 48 h; for CC50: read-out: pLC50 (the source's name) (converted); for TGI: read-out: pTGI (converted)
A498 = experiment: Growth inhibition of human A498 cells after 48 hrs by SRB staining method; settings: A498, 48 h; for CC50: read-out: pLC50 (the source's name) (converted); for TGI: read-out: pTGI (converted)
NCI-H226 = experiment: Growth inhibition of human NCI-H226 cells after 48 hrs by SRB staining method; settings: NCI-H226, 48 h; for TGI: read-out: pTGI (converted)
CAKI-1 = experiment: Growth inhibition of human CAKI1 cells after 48 hrs by SRB staining method; settings: CAKI-1, 48 h; for CC50: read-out: pLC50 (the source's name) (converted); for TGI: read-out: pTGI (converted)
UO-31 = experiment: Growth inhibition of human UO31 cells after 48 hrs by SRB staining method; settings: UO-31, 48 h; for CC50: read-out: pLC50 (the source's name) (converted); for TGI: read-out: pTGI (converted)
M14 = experiment: Growth inhibition of human M14 cells after 48 hrs by SRB staining method; settings: M14, 48 h; for TGI: read-out: pTGI (converted)
SK-MEL-5 = experiment: Growth inhibition of human SK-MEL-5 cells after 48 hrs by SRB staining method; settings: SK-MEL-5, 48 h; for TGI: read-out: pTGI (converted)

## COc1cc(Nc2nc3cc(N)cc(N)c3nc2-c2ccccc2)cc(OC)c1
ACHN
  GI50: 5.62 µM
  CC50: > 100 µM
  TGI: 83.2 µM
RXF 393
  GI50: 3.16 µM
  CC50: 95.5 µM
  TGI: 18.6 µM
SNB-19
  GI50: 57.5 µM
  LC50: > 100 µM
  TGI: > 100 µM
NCI/ADR-RES
  GI50: 12.9 µM
  CC50: > 100 µM
  TGI: 74.1 µM
NCI-H23
  GI50: 27.5 µM
  LC50: > 100 µM
  TGI: > 100 µM
RPMI-8226
  GI50: 1.26 µM
  CC50: 32.4 µM
  TGI: 10.5 µM
OVCAR-8
  GI50: 6.17 µM
  CC50: > 100 µM
  TGI: 46.8 µM
HOP-62
  GI50: 19.5 µM
  LC50: > 100 µM
  TGI: 53.7 µM
A549
  GI50: 20 µM
  CC50: > 100 µM
  TGI: > 100 µM
MDA-MB-231
  GI50: 6.46 µM
  CC50: > 100 µM
  TGI: 34.7 µM
UACC-62
  GI50: 7.41 µM
  LC50: 61.7 µM
  TGI: 23.4 µM
PC-3
  GI50: 1.95 µM
  CC50: 57.5 µM
  TGI: 11 µM
TK-10
  GI50: 13.2 µM
  CC50: > 100 µM
  TGI: 42.7 µM
SK-MEL-28
  GI50: 14.8 µM
  CC50: > 100 µM
  TGI: 89.1 µM
MDA-MB-435
  GI50: 11.5 µM
  CC50: 49 µM
  TGI: 24 µM
SN12C
  GI50: 8.71 µM
  CC50: > 100 µM
  TGI: > 100 µM
Malme-3M
  GI50: 4.37 µM
  LC50: > 100 µM
  TGI: 24.5 µM
OVCAR-5
  GI50: 26.3 µM
  LC50: > 100 µM
  TGI: > 100 µM
SF-268
  GI50: 5.62 µM
  CC50: > 100 µM
  TGI: 56.2 µM
HCT-116
  GI50: 17 µM
  LC50: > 100 µM
  TGI: 53.7 µM
OVCAR-4
  GI50: 17.8 µM
  LC50: > 100 µM
  TGI: > 100 µM
KM12
  GI50: 13.2 µM
  LC50: 72.4 µM
  TGI: 30.9 µM
OVCAR-3
  GI50: 3.89 µM
  LC50: 100 µM
  TGI: 20 µM
NCI-H322M
  GI50: 13.8 µM
  LC50: > 100 µM
  TGI: 58.9 µM
NCI-H522
  GI50: 9.55 µM
  LC50: 85.1 µM
  TGI: 28.8 µM
MCF7
  GI50: 7.94 µM
  CC50: 85.1 µM
  TGI: 26.9 µM
A498
  GI50: 4.9 µM
  CC50: 79.4 µM
  TGI: 22.4 µM
NCI-H226
  GI50: 2.88 µM
  LC50: > 100 µM
  TGI: 33.1 µM
CAKI-1
  GI50: 14.8 µM
  CC50: > 100 µM
  TGI: 72.4 µM
UO-31
  GI50: 8.91 µM
  CC50: > 100 µM
  TGI: 44.7 µM
M14
  GI50: 14.1 µM
  LC50: 85.1 µM
  TGI: 34.7 µM
SK-MEL-5
  GI50: 10.5 µM
  LC50: 87.1 µM
  TGI: 30.2 µM

## COc1ccc(Nc2nc3cc(N)cc(N)c3nc2-c2ccccc2)cc1
ACHN
  GI50: 15.1 µM
  CC50: > 100 µM
  TGI: 43.7 µM
RXF 393
  GI50: 11 µM
  CC50: 53.7 µM
  TGI: 24 µM
SNB-19
  GI50: 33.9 µM
  LC50: > 100 µM
  TGI: > 100 µM
NCI/ADR-RES
  GI50: 19.1 µM
  CC50: > 100 µM
  TGI: 44.7 µM
NCI-H23
  GI50: 12.6 µM
  LC50: 51.3 µM
  TGI: 25.1 µM
RPMI-8226
  GI50: 19.1 µM
  CC50: > 100 µM
  TGI: > 100 µM
OVCAR-8
  GI50: 13.8 µM
  CC50: 67.6 µM
  TGI: 30.9 µM
HOP-62
  GI50: 27.5 µM
  LC50: > 100 µM
  TGI: > 100 µM
A549
  GI50: 27.5 µM
  CC50: > 100 µM
  TGI: > 100 µM
MDA-MB-231
  GI50: 11.5 µM
  CC50: 55 µM
  TGI: 25.1 µM
UACC-62
  GI50: 17 µM
  LC50: 55 µM
  TGI: 30.2 µM
PC-3
  GI50: 20.9 µM
  CC50: > 100 µM
  TGI: 47.9 µM
TK-10
  GI50: 16.6 µM
  CC50: > 100 µM
  TGI: 42.7 µM
SK-MEL-28
  GI50: 17 µM
  CC50: 55 µM
  TGI: 30.2 µM
MDA-MB-435
  GI50: 16.6 µM
  CC50: 55 µM
  TGI: 30.2 µM
SN12C
  GI50: 20.4 µM
  CC50: > 100 µM
  TGI: 57.5 µM
Malme-3M
  GI50: 15.1 µM
  LC50: 53.7 µM
  TGI: 28.2 µM
OVCAR-5
  GI50: 21.4 µM
  LC50: > 100 µM
  TGI: 53.7 µM
SF-268
  GI50: 12.9 µM
  CC50: 72.4 µM
  TGI: 30.9 µM
HCT-116
  GI50: 14.8 µM
  LC50: 52.5 µM
  TGI: 28.2 µM
OVCAR-4
  GI50: 10.5 µM
  LC50: 46.8 µM
  TGI: 21.9 µM
KM12
  GI50: 15.8 µM
  LC50: 60.3 µM
  TGI: 30.9 µM
OVCAR-3
  GI50: 17.4 µM
  LC50: 79.4 µM
  TGI: 37.2 µM
NCI-H322M
  GI50: 23.4 µM
  LC50: > 100 µM
  TGI: 83.2 µM
NCI-H522
  GI50: 14.8 µM
  LC50: 52.5 µM
  TGI: 28.2 µM
MCF7
  GI50: 14.8 µM
  CC50: 52.5 µM
  TGI: 28.2 µM
A498
  CC50: > 100 µM
  TGI: > 100 µM
NCI-H226
  GI50: 24 µM
  LC50: > 100 µM
  TGI: 97.7 µM
CAKI-1
  GI50: 35.5 µM
  CC50: > 100 µM
  TGI: > 100 µM
UO-31
  GI50: 16.6 µM
  CC50: 70.8 µM
  TGI: 33.9 µM
M14
  GI50: 17.8 µM
  LC50: 75.9 µM
  TGI: 36.3 µM
SK-MEL-5
  GI50: 15.1 µM
  LC50: 53.7 µM
  TGI: 28.8 µM
